# Data from US7345091B2, “Carotenoid ether analogs or derivatives for the inhibition and amelioration of disease” (Cardax Pharmaceuticals, Inc., priority 2002, dated 2008).
# Counter-ions that a name gives are not always drawn.
# How the values were obtained:
# [1] = Determination of water solubility; type: physicochemical
# Method: A total of 30 mg of sample (disodium disuccinate astaxanthin derivative, as the all-trans mixture of stereoisomers 3S,3′S, meso, and 3R,3′R in a 1:2:1 ratio) was added to 2 mL of sterile-filtered ([…] Millipore®) deionized (DI) water in a 15 mL glass centrifuge tube. The tube was wrapped in aluminum foil and the mixture was shaken for 2 hours, then centrifuged at 3500 rpm for 10 minutes. The aqueous solution was filtered through a 0.45 micron PVDF disposable filter device. A 1 mL volume of filtrate was then diluted appropriately with DI water, and the concentration of the solution was measured at 480 nm using a four point calibration curve prepared from fresh sample.
# male Sprague-Dawley rats = assay: Infarct size reduction after coronary artery occlusion/reperfusion; type: in vivo, rat; conditions: for relationship of infarct size reduction / myocardial salvage to dose: 25, 50, 75 mg/kg I.V.
# Method: FIG. 4, FIG. 25, and FIG. 26 depict graphical representations of the reduction of infarct size in male Sprague-Dawley rats. Male Sprague-Dawley rats were pre-treated with the disodium salt disuccinate astaxanthin derivative XVI (as the mixture of stereoisomers) in aqueous solution before performing an occlusion and inducing a myocardial infarction. Male Sprague-Dawley rats (175-200 grams) were anaesthetized with 100 mg/kg of Inactin, instrumented, and the heart exposed. […] The hearts were washed in buffer and incubated in triphenyltetrazolium chloride (TTC) staining solution kept at 37° C. in phosphate buffer at pH of 7.40. Infarct size (IS) was expressed as a % of the area at risk (IS/AAR, %). Systemic blood pressure, heart rate, blood gases and body temperature were monitored throughout the experiment, and temperature and blood gases were tightly controlled at normal physiological levels. 25, 50, or 75 mg/kg of the disodium salt disuccinate astaxanthin derivative XVI or sterile saline vehicle was administered I.V. by tail vein injection every day for 4 days prior to the infarct experiment on day 5 and subsequent infarct size determination.
# [2] = system: male New Zealand white rabbits; assay: Experimental infarct size after parenteral administration; type: in vivo, rabbit
# From the text: (§1) The influence of parenteral administration of the disodium disuccinate astaxanthin derivative (XVI) on induced infarct size and induced levels of circulating C-reactive protein (CRP) in rabbits was investigated using the methods of Barrett et al. (2002) with slight modifications. The purpose of the current study was to investigate the ability of the disodium disuccinate astaxanthin derivative (XVI) to reduce inflammation as measured by CRP in the setting of experimental myocardial ischemia-reperfusion injury in the rabbit heart. […] Therefore, reduction of circulating CRP levels, together with the reduction(s) in infarct size previously noted with Cardax™ in rodents, would form a powerful anti-inflammatory therapeutic modality in the acute coronary syndrome setting.
# In brief, male New Zealand white rabbits (2.25-2.5 kg) were used for the study. The acute phase inflammatory response was induced by subcutaneous injection of four aliquots (0.5 mL each) of 1% croton oil in corn oil beginning on the second day of pre-treatment with Cardax™. […]
# At the completion of the reperfusion phase of the protocol, the hearts were removed and cannulated by the aorta on the Langendorff perfusion apparatus. […] Total area at risk was expressed as a percentage of the left ventricle. Infarct size was then expressed as a percentage of area at risk.
# C-reactive protein (CRP) = assay: Circulating C-reactive protein levels (ELISA) in croton oil-stimulated infarct model; type: in vivo, rabbit; conditions: 50 mg/kg IV for 4 days; 1% croton oil; sample at time of reperfusion; controls +23.5%
# From the text: as §1
# In brief, male New Zealand white rabbits (2.25-2.5 kg) were used for the study. The acute phase inflammatory response was induced by subcutaneous injection of four aliquots (0.5 mL each) of 1% croton oil in corn oil beginning on the second day of pre-treatment with Cardax™. Either Cardax™ (at 50 mg/kg IV by ear vein injection) in water or equal volumes of sterile saline were given once per day for 4 days prior to experimental infarction on day 5. The time course of increases in circulating CRP levels were obtained as described previously (Barret et al. 2002), using an ELISA-based method with anti-rabbit CRP antibodies. […]
smiles,measurement,setting,value
"CC1=C(/C=C/C(C)=C/C=C/C(C)=C/C=C/C=C(C)/C=C/C=C(C)/C=C/C2=C(C)C(=O)C(OC(=O)CCC(=O)O)CC2(C)C)C(C)(C)CC(OC(=O)CCC(=O)O)C1=O (racemic) [XVI, Disodium Salt of the Disuccinic Acid Ester of Astaxanthin]",solubility at 2 h,"[1]; deionized water, water, thermodynamic from solid, pure aqueous formulation",8.64 mg/mL
same,increase in solubility in the dosing vehicle,[1]; emulsion vs pure aqueous formulation,6 fold
same,solubility,"[1]; olive oil/water/soybean lecithin emulsion, aqueous with cosolvent or surfactant or cyclodextrin, olive oil/water/soybean lecithin emulsion for oral gavage",~50 mg/mL
same,water solubility,[1]; pure aqueous formulation,approximately 8.64 mg/mL
same,mean myocardial salvage,male Sprague-Dawley rats; 75 mg/kg I.V. daily for 4 days before 30 min occlusion / 2 hours reperfusion,56%
same,relationship of infarct size reduction / myocardial salvage to dose,male Sprague-Dawley rats,"increased linearly, and significantly, with dose"
same,relationship of infarct size reduction / myocardial salvage to dose,male Sprague-Dawley rats; listed as Cardax™,linear relationship between dose and infarct size reduction
same,reductions in infarct size,"[2]; 50 mg/kg IV once per day for 4 days, 30 min occlusion / 180 min reperfusion",approximately 55.4%
same,increase in infarct size reduction in rabbit vs rodents,[2]; same dose and identical pre-treatment schedule,38%
same,mean change in circulating CRP levels from baseline,C-reactive protein (CRP),−15.7%
